From US7109193B2, “Tricyclic diazepines tocolytic oxytocin receptor antagonists” (Wyeth, priority 2001, dated 2006) come the findings set out here.

Series [1] concerns the target T1, human vasopressin V2 receptor subtype (Homo sapiens, UniProt P30518).
T1 construct: host or cells: CHO cells (pZeoSV vector)
Nature of the series: Vasopressin binding in Chinese Hamster Ovary cell membranes expressing human vasopressin V2 subtype receptors. As to conditions: 100 nM, CHO cell membranes, [3H]arginine vasopressin, values without parentheses. The procedure, abridged:
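Radioligand displacement on membranes from CHO cells stably expressing human V2 receptor, 25 to 50 μg protein/well, in 50 mM Tris-HCl pH 7.4 with MgCl2, BSA and protease inhibitors. [^3H]arginine vasopressin (8 nM working solution) incubated 60 min at room temperature; bound label measured by filtration and scintillation counting.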

T1 sequence (P30518 whole entry): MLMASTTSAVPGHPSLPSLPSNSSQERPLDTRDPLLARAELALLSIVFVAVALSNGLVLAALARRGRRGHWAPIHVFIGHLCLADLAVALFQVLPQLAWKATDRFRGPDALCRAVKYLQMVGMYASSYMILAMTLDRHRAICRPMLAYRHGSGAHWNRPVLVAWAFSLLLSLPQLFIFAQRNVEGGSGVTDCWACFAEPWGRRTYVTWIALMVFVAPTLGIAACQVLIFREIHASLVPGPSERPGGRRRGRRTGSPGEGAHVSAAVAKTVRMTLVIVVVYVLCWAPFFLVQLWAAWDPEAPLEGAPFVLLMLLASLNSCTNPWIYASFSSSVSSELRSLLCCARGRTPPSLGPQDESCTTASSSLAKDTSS

By melting point is commonly meant the temperature, or range, at which the solid turns liquid. A word on the inhibition: it is the drop in the measured response relative to a control, in per cent. In turn, `CCOc1ccccc1-c1cc(OC)c(C(=O)N2Cc3cccn3Cc3ccccc32)cc1Cl` [Example 17, 10-{[6-Chloro-3-methoxy-2′-ethoxy[1,1′-biphenyl]-4-yl]carbonyl}-10,11-dihydro-5H-pyrrolo[2,1-c][1,4]benzodiazepine] displayed a melting point of 213 to 215 °C. The inhibition at 0.1 µM in series [1] is 32%.
Molecule `O=C(c1ccc(-c2ccccc2)nc1)N1Cc2cccn2Cc2ccccc21` [Example 29, (6-Phenyl-pyridin-3-yl)-[10,11-dihydro-5H-pyrrolo[2,1-c][1,4]benzodiazepin-10-yl]methanone] displayed a melting point of 171 to 174 °C. Besides, the inhibition at 0.1 µM in series [1] was determined as 24%.
Take `Cc1cc(C(=O)N2Cc3cccn3Cc3ccccc32)cc(C)c1-n1c(C)ccc1C` [Example 30, [4-(2,5-Dimethyl-1H-pyrrol-1-yl)-3,5-dimethyl-phenyl][10,11-dihydro-5H-pyrrolo[2,1-c][1,4]benzodiazepin-10-yl]methanone]: the melting point was in the range of 197 to 199 °C. Further, the inhibition at 0.1 µM in series [1] was found to be 3%.
For `Cc1cc(C(=O)N2Cc3cccn3Cc3ccccc32)ccc1-c1ccncc1` [Example 31, [3-Methyl-4-(4-pyridinyl)phenyl]-[10,11-dihydro-5H-pyrrolo[2,1-c][1,4]benzodiazepin-10-yl]methanone] the same measures were 208 to 210 °C and 31%.
As for `COc1cc(C(=O)N2Cc3ccc(C(=O)N4CCC(N5CCCC5)CC4)n3Cc3ccccc32)ccc1-n1c(C)ccc1C` [Example 313, {10-[4-(2,5-Dimethyl-1H-pyrrol-1-yl)-3-methoxybenzoyl]-10,11-dihydro-5H-pyrrolo[2,1-c][1,4]benzodiazepin-3-yl}[4-(1-pyrrolidinyl)-1-piperidinyl]methanone], in series [1], the inhibition at 0.1 µM came to 2%.
For `COc1cc(C(=O)N2Cc3ccc(C(=O)NCCN4CCCCC4)n3Cc3ccccc32)ccc1-n1c(C)ccc1C` [Example 314, 10-[4-(2,5-Dimethyl-1H-pyrrol-1-yl)-3-methoxybenzoyl]-N-[2-(1-piperidinyl)ethyl]-10,11-dihydro-5H-pyrrolo[2,1-c][1,4]benzodiazepine-3-carboxamide], in series [1], the inhibition at 0.1 µM is 7%.
The same measure, in the same setting: then `COc1cc(C(=O)N2Cc3ccc(C(=O)NCCC4CCCN4C)n3Cc3ccccc32)ccc1-n1c(C)ccc1C` (centres unmarked) [Example 315, 10-[4-(2,5-Dimethyl-1H-pyrrol-1-yl)-3-methoxybenzoyl]-N-[2-(1-methyl-2-pyrrolidinyl)ethyl]-10,11-dihydro-5H-pyrrolo[2,1-c][1,4]benzodiazepine-3-carboxamide], with -4%; and `COc1cc(C(=O)N2Cc3ccc(C(=O)N4CCN(CCN(C)C)CC4)n3Cc3ccccc32)ccc1-n1c(C)ccc1C` [Example 316, {4-[2-(Dimethylamino)ethyl]-1-piperazinyl}{10-[4-(2,5-dimethyl-1H-pyrrol-1-yl)-3-methoxybenzoyl]-10,11-dihydro-5H-pyrrolo[2,1-c][1,4]benzodiazepin-3-yl}methanone], with -2%; and `COc1cc(C(=O)N2Cc3ccc(C(=O)N4CCN(CCN5CCOCC5)CC4)n3Cc3ccccc32)ccc1-n1c(C)ccc1C` [Example 317, {10-[4-(2,5-Dimethyl-1H-pyrrol-1-yl)-3-methoxybenzoyl]-10,11-dihydro-5H-pyrrolo[2,1-c][1,4]benzodiazepin-3-yl}{4-[2-(4-morpholinyl)ethyl]-1-piperazinyl}methanone], with 15%.
As to `C=CCN1CCN(C(=O)c2ccc3n2Cc2ccccc2N(C(=O)c2ccc(-n4c(C)ccc4C)c(OC)c2)C3)CC1` [Example 318, (4-Allyl-1-piperazinyl){10-[4-(2,5-dimethyl-1H-pyrrol-1-yl)-3-methoxybenzoyl]-10,11-dihydro-5H-pyrrolo[2,1-c][1,4]benzodiazepin-3-yl}methanone], the inhibition at 0.1 µM in series [1] was 17%.
Take `COc1cc(C(=O)N2Cc3ccc(C(=O)N4CCN(C(C)C)CC4)n3Cc3ccccc32)ccc1-n1c(C)ccc1C` [Example 319, {10-[4-(2,5-Dimethyl-1H-pyrrol-1-yl)-3-methoxybenzoyl]-10,11-dihydro-5H-pyrrolo[2,1-c][1,4]benzodiazepin-3-yl}(4-isopropyl-1-piperazinyl)methanone]: the inhibition at 0.1 µM in series [1] turned out to be 13%.
Turning to `COc1cc(C(=O)N2Cc3ccc(C(=O)N4CCN(CCCN(C)C)CC4)n3Cc3ccccc32)ccc1-n1c(C)ccc1C` [Example 320, {4-[3-(Dimethylamino)propyl]-1-piperazinyl}{10-[4-(2,5-dimethyl-1H-pyrrol-1-yl)-3-methoxybenzoyl]-10,11-dihydro-5H-pyrrolo[2,1-c][1,4]benzodiazepin-3-yl}methanone], the inhibition at 0.1 µM in series [1] was 21%.
Take `Cc1cc(C(=O)N2Cc3cccn3Cc3ncccc32)ccc1-c1ccccc1C(F)(F)F` [Example 323F, (2-Methyl-2′-trifluoromethyl-[1,1′-biphenyl]-4-yl)-(4H,10H-3a,5,9-triaza-benzo[f]azulen-9-yl)-methanone]: the inhibition at 0.1 µM in series [1] was determined as 5%.
